Assay results: US12016852B2, “Pyrrolidine glycosidase inhibitors” (Asceneuron SA, priority 2018, dated 2024)

Each compound was assayed against T1, Human O-GlcNAcase (His-Tagged hOGA) (Homo sapiens, UniProt O60502) (assay: Human O-GlcNAcase enzyme inhibition assay). Settings: 20 nM His-Tagged hOGA, 10 μM FL-GlcNAc, McIlvaine's Buffer pH 6.5, 60 min at room temperature, fluorescence; read-out: OGA IC50.
T1 sequence (O60502 1-916): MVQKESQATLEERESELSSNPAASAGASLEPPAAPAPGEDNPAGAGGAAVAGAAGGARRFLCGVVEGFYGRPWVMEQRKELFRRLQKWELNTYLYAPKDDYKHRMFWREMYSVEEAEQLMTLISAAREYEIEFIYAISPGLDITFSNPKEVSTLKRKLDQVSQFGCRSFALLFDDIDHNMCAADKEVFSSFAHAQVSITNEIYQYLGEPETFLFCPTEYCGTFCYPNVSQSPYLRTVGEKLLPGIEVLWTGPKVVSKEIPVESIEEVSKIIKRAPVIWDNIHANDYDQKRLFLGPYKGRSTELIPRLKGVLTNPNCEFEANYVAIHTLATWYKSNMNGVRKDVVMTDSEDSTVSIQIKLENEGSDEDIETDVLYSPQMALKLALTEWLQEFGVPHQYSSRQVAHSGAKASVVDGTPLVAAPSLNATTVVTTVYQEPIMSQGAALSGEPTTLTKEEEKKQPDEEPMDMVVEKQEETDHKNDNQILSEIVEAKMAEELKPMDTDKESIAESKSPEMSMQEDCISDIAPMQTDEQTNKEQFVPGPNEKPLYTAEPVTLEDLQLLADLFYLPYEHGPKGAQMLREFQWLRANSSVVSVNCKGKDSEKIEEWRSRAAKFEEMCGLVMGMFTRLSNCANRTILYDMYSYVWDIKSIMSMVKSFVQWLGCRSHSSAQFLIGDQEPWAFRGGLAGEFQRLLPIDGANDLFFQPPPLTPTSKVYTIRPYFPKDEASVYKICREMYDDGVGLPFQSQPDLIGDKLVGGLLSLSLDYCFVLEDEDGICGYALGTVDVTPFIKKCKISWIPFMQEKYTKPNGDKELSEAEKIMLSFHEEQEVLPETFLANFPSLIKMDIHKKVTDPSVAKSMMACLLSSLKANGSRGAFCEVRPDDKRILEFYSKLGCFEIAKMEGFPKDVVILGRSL
Format: biochemical
Method in brief: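 20 nM His-tagged hOGA with 10 μM fluorescein-GlcNAc substrate in McIlvaine's buffer pH 6.5, 60 min at room temperature, stopped with glycine pH 10.75. Fluorescence (485/520 nm) background-corrected using 3 uM Thiamet as full inhibition and 0.5% DMSO as no inhibition; IC50 from sigmoidal dose-response.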

| IC50 | SMILES |
| --- | --- |
| 50 to 200 nM | c1cnc2ccc(CN3CCCC3c3ccc4c(c3)OCCO4)cc2c1 (single isomer, unassigned) [Example 25, (S)-6-((2-(2,3-dihydrobenzo[b] [1,4]dioxin-6-yl)pyrrolidin-1-yl)methyl)quinolone or (R)-6-((2-(2,3-dihydrobenzo[b] [1,4]dioxin-6-yl)pyrrolidin-1-yl)methyl)quinolone] |
| 50 to 200 nM | c1cnn(-c2ccc(CN3CCCC3c3ccc4c(c3)OCCO4)cc2)c1 (single isomer, unassigned) [Example 27, (S)-1-(4-((2-(2,3-dihydrobenzo[b] [1,4]dioxin-6-yl)pyrrolidin-1-yl)methyl)phenyl)-1 H-pyrazole or (R)-1-(4-((2-(2,3-dihydrobenzo[b] [1,4]dioxin-6-yl)pyrrolidin-1-yl)methyl)phenyl)-1H-pyrazole] |
| 50 to 200 nM | Cc1cc(-c2cccnc2)ccc1CN1CCCC1c1ccc2c(c1)OCCO2 (single isomer, unassigned) [Example 33, (S)-3-(4-((2-(2,3-dihydrobenzo[b] [1,4]dioxin-6-yl)pyrrolidin-1-ylmethyl)-3-methylphenyl)pyridine or (R)-3-(4-((2-(2,3-dihydrobenzo[b] [1,4]dioxin-6-yl)pyrrolidin-1-yl)methyl)-3-methylphenyl)pyridine] |
| 50 to 200 nM | c1ccc(-c2ccc(CN3CCCC3c3ccc4c(c3)OCCO4)cc2)nc1 (single isomer, unassigned) [Example 40, (S)-2-(4-((2-(2,3-dihydrobenzo[b] [1,4]dioxin-6-yl)pyrrolidin-1-yl)methyl)phenyl)pyridine or (R)-2-(4-((2-(2,3-dihydrobenzo[b] [1,4]dioxin-6-yl)pyrrolidin-1-yl)methyl)phenyl)pyridine] |
| 50 to 200 nM | c1ncn(-c2ccc(CN3CCCC3c3ccc4c(c3)OCCO4)cc2)n1 (single isomer, unassigned) [Example 48, (S)-1-(4-((2-(2,3-dihydrobenzo[b] [1,4]dioxin-6-yl)pyrrolidin-1-yl)methyl) Phenyl)-1H-1,2,4-triazole or (R)-1-(4-((2-(2,3-dihydrobenzo[b] [1,4]dioxin-6-yl)pyrrolidin-1-yl)methyl)phenyl)-1 H-1,2,4-triazole] |
| 50 to 200 nM | CS(=O)(=O)N1CCN(c2ccc(CN3CCCC3c3ccc4c(c3)OCCO4)cc2)CC1 (single isomer, unassigned) [Example 53, (S)-1-(4-((2-(2,3-dihydrobenzo[b] [1,4]dioxin-6-yl)pyrrolidin-1-yl)methyl)phenyl)-4-(methylsulfonyl)piperazine or (R)-1-(4-((2-(2,3-dihydrobenzo[b] [1,4]dioxin-6-yl)pyrrolidin-1-yl)methyl)phenyl)-4-(methylsulfonyl)piperazine] |
| 200 to 1000 nM | O=C1CSCCN1c1ccc(CN2CCCC2c2ccc3c(c2)OCCO3)cc1 (single isomer, unassigned) [Example 73] |
| 1000 to 10000 nM | O=C1CSCCN1c1ccc(CN2CCCC2c2ccc3c(c2)OCCO3)cc1 (single isomer, unassigned) [Example 74] |
| 50 to 200 nM | c1cnc(-c2ccc(CN3CCCC3c3ccc4c(c3)OCCO4)cc2)nc1 (single isomer, unassigned) [Example 75, (S)-2-(4-((2-(2,3-dihydrobenzo[b] [1,4]dioxin-6-yl)pyrrolidin-1-yl)methyl)phenyl)pyrimidine or (R)-2-(4-((2-(2,3-dihydrobenzo[b] [1,4]dioxin-6-yl)pyrrolidin-1-yl)methyl)phenyl)pyrimidine] |
| 200 to 1000 nM | Cn1cc(-c2ccc(CN3CCCC3c3ccc4c(c3)OCCO4)nc2)cn1 (single isomer, unassigned) [Example 145] |
| 1000 to 10000 nM | CS(=O)(=O)N1CCN(c2ccc(CN3CCCC3c3ccc4c(c3)OCCO4)cc2)CC1 (single isomer, unassigned) [Example 148] |
